The source made the active and inactive calls. The calls are words filed in the database; no cut-off is given here.
Organism: Homo sapiens
Assay: Inhibition of cell migration of human A375M6 cells at 1 to 10 uM incubated for 6 hrs by Boyden chambers assay
Type: functional

`CNC(=O)[C@H](Cc1c[nH]c2ccccc12)NC(=O)[C@@H](CC(=O)NO)CC(C)C` was tested, and the inhibition was “Active”.
